The target in assay [1] is Apelin receptor (Homo sapiens) (UniProt P35414). Briefly: APJ beta-arrestin recruitment blockade alongside CXCR6 – cell-based, DiscoveRx, panel, CHO-K1, counter-screen for CXCR6 antagonist project, SAR follow-up (AID 651598). Particulars: CHO-K1 PathHunter beta-arrestin luminescence, antagonist mode; APJ; mean of runs. For orientation: Activated receptors often draw arrestin, which recruitment assays turn into a signal.

The target of assay [2] is C-X-C chemokine receptor type 6 (Homo sapiens) (UniProt O00574). The assay is described as above. Particulars: CHO-K1 PathHunter beta-arrestin luminescence, antagonist mode; CXCR6; mean of runs.
Sequence of C-X-C chemokine receptor type 6 (Homo sapiens) (O00574 whole entry, looked up): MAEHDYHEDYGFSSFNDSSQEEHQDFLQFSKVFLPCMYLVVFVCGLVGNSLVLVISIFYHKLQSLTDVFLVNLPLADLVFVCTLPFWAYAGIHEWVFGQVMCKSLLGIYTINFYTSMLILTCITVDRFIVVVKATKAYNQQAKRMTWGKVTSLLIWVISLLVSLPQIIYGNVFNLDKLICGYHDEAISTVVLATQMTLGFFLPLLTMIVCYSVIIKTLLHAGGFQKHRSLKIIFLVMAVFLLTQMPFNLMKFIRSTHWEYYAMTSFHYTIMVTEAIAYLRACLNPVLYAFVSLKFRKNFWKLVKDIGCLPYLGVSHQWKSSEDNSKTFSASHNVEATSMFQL

The values that follow come from PubChem BioAssay AID651598 (Sanford-Burnham Center for Chemical Genomics, 2012).

The source made the active and inactive calls.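 How the source made its calls: active means CXCR6 IC50 under 10 µM and IC50 at the unrelated APJ receptor at least five times higher; inactive means the rest.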

Sequence of Apelin receptor (Homo sapiens) (P35414 whole entry, looked up): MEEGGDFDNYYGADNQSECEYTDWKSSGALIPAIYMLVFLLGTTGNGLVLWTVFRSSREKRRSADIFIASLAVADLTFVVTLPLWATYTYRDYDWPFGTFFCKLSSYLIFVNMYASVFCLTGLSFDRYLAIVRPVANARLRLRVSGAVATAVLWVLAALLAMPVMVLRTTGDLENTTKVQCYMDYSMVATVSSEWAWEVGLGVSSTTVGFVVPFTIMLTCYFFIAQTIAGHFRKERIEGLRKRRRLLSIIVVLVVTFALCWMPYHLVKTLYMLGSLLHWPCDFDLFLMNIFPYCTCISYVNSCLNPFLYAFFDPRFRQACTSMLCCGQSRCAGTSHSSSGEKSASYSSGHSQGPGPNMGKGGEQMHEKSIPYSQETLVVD

The term IC50 denotes the concentration at which inhibition is half-maximal. Take `COc1cc(C(=O)NC2CC3CCC(C2)N3CC(=O)Nc2ccccc2)cc(OC)c1OC` (centres undefined): the IC50 in assay [1] was > 80 µM (inactive).
With `COc1cc(C(=O)NC2CCN(CC(=O)Nc3ccccc3)CC2)cc(OC)c1OC`, the IC50 in assay [1] and in assay [2] was > 80 µM (inactive) each time.
Take `COc1cc(C(=O)NC2CC3CCCC(C2)N3CC(=O)Nc2ccccc2)cc(OC)c1OC` (centres undefined): the IC50 in assay [1] was > 80 µM (inactive).
